What was measured:
[1] = target: Voltage-dependent L-type calcium channel subunit alpha-1C (Homo sapiens, UniProt Q13936); format: functional, cell-based
[2] = target: T1, Androgen receptor (Rattus norvegicus, UniProt P15207); format: functional
T1 sequence (P15207 whole entry): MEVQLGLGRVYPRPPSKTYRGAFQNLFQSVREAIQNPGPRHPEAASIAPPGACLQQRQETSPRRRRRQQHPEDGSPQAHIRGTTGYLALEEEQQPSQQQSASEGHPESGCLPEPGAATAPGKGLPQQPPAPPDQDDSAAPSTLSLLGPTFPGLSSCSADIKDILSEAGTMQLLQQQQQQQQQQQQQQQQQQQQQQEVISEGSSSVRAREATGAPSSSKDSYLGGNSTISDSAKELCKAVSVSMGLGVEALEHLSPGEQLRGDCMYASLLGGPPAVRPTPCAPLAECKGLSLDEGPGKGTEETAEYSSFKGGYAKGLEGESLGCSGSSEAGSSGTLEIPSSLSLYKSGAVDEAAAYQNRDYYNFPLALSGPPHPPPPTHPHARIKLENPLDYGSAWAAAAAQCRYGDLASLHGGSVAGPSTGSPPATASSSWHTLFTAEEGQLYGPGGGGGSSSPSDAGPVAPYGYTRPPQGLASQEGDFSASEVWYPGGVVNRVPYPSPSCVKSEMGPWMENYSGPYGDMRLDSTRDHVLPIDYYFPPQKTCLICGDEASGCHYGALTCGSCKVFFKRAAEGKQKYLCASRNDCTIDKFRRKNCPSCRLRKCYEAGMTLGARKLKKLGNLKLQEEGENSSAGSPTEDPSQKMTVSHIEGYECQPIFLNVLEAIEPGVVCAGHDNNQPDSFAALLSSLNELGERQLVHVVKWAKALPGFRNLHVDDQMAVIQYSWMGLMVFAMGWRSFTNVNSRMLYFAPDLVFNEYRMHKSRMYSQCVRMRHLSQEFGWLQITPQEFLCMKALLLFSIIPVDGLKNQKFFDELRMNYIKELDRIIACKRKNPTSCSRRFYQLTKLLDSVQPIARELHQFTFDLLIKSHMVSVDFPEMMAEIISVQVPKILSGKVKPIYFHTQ

[3] = target: T2, Prostaglandin G/H synthase 1 (Rattus norvegicus, UniProt Q63921); format: functional
T2 sequence (Q63921 whole entry): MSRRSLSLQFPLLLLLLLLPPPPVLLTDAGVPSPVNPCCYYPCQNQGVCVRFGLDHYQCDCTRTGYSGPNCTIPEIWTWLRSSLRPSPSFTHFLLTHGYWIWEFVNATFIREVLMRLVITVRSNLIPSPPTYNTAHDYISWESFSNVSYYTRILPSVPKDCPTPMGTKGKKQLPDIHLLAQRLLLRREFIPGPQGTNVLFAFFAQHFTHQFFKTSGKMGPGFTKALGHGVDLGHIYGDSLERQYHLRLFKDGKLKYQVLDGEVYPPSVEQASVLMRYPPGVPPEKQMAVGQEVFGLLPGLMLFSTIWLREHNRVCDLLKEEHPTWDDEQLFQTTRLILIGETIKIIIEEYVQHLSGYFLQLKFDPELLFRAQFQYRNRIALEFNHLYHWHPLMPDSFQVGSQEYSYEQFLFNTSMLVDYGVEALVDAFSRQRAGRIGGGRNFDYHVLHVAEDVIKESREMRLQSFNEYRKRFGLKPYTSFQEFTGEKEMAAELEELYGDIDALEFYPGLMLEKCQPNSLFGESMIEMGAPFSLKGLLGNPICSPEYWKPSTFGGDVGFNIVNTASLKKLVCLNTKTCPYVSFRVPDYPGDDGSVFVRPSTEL

[4] = target: T3, Thromboxane A2 receptor (Homo sapiens, UniProt P21731); format: functional
T3 sequence (P21731 whole entry): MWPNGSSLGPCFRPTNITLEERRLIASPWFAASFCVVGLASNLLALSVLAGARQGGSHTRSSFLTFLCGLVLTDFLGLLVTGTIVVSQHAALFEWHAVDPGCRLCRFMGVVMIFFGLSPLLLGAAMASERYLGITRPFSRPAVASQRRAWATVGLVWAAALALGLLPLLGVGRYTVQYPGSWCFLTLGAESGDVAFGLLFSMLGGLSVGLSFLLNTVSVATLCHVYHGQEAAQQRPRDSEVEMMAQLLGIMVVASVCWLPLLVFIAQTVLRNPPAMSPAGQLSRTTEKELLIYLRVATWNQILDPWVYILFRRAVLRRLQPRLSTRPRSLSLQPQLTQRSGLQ

[5] = target: T3, Thromboxane A2 receptor; format: functional, cell-based
[6] = target: Rod cGMP-specific 3',5'-cyclic phosphodiesterase subunit alpha (Homo sapiens, UniProt P16499); format: functional
Sequence of Rod cGMP-specific 3',5'-cyclic phosphodiesterase subunit alpha (P16499 whole entry): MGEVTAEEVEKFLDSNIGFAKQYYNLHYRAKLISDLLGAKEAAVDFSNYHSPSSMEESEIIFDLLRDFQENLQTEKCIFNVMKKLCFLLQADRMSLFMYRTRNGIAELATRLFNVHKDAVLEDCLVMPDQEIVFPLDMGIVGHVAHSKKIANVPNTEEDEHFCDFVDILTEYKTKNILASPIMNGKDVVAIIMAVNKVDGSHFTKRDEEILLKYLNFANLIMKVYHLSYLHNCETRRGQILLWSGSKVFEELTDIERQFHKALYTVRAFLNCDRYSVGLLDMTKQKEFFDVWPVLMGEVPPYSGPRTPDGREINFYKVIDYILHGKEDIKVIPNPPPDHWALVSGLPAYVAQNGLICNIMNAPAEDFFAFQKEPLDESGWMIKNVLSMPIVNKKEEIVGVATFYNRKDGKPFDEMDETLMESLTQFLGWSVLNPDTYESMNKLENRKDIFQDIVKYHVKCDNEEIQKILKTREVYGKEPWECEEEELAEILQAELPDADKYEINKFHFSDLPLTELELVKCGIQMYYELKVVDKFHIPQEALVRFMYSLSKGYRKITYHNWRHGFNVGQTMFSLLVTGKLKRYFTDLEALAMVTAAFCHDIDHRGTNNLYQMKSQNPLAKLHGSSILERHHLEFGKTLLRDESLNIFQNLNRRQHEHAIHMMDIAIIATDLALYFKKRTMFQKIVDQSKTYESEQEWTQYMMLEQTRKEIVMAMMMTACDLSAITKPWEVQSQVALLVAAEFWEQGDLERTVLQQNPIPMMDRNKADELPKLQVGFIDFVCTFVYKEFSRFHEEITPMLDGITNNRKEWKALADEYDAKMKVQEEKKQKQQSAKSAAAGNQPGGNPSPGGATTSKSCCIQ

[7] = target: T4, Substance-K receptor (Homo sapiens, UniProt P21452)
T4 sequence (P21452 whole entry): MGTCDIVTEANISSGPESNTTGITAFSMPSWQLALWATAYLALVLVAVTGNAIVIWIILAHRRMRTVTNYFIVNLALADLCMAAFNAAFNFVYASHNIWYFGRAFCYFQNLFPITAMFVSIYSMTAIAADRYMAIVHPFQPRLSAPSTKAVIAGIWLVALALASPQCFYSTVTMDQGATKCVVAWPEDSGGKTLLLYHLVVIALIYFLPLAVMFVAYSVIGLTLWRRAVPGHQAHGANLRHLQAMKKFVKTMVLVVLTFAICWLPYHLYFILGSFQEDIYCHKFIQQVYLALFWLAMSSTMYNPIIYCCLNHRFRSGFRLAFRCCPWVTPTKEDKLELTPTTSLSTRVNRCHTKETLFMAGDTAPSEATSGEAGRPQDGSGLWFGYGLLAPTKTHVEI

[8] = target: Vascular endothelial growth factor receptor 2 (Homo sapiens, UniProt P35968); format: functional
Sequence of Vascular endothelial growth factor receptor 2 (P35968 whole entry): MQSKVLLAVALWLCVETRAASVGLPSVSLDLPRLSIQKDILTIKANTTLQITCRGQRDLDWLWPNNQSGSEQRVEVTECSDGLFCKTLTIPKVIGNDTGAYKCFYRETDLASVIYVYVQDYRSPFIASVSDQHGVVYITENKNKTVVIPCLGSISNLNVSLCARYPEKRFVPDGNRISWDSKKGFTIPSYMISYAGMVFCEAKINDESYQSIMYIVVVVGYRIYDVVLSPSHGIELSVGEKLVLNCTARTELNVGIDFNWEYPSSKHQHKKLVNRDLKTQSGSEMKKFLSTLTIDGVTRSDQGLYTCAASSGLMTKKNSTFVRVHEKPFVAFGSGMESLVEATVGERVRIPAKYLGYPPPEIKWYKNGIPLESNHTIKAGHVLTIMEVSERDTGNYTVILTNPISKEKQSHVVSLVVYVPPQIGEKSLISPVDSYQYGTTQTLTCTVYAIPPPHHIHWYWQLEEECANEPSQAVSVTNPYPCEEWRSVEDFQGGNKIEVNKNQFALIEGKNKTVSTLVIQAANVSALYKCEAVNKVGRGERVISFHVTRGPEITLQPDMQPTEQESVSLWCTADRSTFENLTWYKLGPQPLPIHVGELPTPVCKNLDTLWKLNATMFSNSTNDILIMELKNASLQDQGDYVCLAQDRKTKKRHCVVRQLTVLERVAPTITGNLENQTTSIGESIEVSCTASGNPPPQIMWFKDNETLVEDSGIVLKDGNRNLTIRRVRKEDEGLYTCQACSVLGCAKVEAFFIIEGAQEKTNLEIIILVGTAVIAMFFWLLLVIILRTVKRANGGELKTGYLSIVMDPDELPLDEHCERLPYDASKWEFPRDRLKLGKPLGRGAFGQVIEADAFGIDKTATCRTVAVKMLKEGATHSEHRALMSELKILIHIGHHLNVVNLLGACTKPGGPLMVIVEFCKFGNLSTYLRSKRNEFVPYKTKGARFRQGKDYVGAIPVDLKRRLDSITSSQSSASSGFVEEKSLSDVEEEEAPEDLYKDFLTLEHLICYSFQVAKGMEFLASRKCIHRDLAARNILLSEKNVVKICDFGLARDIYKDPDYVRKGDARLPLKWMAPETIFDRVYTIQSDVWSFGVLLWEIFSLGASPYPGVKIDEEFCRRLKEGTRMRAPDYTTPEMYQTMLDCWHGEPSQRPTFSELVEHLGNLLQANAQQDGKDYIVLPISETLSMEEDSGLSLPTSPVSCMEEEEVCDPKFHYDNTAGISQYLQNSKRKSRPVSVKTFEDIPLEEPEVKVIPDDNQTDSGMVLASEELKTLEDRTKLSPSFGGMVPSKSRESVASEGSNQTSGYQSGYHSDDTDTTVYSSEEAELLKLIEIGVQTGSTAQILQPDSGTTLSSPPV

[9] = target: T5, Muscarinic acetylcholine receptor M4 (Homo sapiens, UniProt P08173)
T5 sequence (P08173 whole entry): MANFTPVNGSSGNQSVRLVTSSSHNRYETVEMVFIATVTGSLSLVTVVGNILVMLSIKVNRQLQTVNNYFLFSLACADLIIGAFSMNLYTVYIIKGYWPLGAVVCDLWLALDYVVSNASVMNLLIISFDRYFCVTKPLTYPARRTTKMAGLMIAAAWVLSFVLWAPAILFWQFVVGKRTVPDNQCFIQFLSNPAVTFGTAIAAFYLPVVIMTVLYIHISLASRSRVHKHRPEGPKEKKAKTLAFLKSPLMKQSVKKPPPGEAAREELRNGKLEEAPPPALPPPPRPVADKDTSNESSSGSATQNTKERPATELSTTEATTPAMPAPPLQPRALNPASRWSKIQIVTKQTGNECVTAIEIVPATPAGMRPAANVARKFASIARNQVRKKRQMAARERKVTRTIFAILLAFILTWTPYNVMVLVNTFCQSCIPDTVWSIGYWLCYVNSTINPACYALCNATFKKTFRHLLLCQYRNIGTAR
Also: assay procedure not described here.

Sequence of Voltage-dependent L-type calcium channel subunit alpha-1C (Q13936 whole entry): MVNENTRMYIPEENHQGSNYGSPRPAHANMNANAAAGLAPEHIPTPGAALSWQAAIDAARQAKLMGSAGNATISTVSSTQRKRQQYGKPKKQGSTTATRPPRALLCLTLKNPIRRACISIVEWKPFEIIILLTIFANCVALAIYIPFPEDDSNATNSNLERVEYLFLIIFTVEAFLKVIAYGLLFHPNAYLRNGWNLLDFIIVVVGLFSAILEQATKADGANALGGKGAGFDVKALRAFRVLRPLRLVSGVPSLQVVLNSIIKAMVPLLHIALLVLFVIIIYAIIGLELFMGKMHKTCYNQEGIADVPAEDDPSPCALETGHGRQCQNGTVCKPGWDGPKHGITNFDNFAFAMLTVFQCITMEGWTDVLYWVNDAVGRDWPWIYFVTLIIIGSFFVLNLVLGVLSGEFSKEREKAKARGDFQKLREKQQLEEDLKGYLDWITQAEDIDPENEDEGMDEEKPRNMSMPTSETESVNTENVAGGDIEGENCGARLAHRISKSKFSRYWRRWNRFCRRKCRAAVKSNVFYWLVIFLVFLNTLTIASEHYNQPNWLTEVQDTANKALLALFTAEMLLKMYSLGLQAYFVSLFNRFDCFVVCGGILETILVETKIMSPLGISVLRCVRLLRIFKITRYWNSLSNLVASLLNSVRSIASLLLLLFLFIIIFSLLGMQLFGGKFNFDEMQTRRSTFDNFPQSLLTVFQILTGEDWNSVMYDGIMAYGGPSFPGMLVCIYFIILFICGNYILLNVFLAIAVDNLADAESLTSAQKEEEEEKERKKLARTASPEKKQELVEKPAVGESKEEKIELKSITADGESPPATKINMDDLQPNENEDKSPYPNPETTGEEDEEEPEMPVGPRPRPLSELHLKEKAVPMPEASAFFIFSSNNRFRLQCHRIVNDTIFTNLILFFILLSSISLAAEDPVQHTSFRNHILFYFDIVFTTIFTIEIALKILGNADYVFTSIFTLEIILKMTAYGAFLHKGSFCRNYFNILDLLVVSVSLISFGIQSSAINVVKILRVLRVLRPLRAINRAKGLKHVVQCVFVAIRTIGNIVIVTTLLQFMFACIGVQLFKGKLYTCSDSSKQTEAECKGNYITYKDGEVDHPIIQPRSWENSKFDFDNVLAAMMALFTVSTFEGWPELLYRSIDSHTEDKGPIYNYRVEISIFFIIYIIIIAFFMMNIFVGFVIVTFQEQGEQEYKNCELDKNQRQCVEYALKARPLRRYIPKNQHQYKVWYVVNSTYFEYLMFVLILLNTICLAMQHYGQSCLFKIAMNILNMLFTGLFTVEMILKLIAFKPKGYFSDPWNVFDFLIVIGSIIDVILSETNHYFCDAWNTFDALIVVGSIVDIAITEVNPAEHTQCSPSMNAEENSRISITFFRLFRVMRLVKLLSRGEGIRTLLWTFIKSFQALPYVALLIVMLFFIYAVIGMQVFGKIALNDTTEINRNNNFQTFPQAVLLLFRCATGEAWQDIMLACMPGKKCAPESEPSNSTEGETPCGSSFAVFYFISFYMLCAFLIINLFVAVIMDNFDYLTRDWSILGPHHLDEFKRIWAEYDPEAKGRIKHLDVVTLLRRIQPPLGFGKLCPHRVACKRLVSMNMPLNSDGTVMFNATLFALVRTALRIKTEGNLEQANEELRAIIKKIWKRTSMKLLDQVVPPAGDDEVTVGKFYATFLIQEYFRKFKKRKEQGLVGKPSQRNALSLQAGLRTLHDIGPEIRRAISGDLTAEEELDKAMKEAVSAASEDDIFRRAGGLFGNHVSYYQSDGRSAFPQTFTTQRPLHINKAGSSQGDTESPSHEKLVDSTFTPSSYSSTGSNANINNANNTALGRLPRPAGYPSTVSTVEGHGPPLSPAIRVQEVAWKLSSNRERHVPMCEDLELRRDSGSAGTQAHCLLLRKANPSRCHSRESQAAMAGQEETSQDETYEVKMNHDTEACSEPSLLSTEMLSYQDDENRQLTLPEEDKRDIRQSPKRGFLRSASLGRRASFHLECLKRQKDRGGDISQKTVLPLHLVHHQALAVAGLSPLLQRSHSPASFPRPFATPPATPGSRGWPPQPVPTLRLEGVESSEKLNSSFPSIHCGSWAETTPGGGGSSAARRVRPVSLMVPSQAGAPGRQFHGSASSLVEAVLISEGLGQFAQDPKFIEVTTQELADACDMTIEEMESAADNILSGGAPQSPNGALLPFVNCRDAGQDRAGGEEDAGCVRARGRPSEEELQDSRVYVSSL

CC[C@@H](C(N)=O)N1CCCC1=O
AC50 [1]: > 50 µM

CN(C)CC/C=C1\c2ccccc2CSc2ccccc21 [DOTHIEPIN]
AC50 [2]: > 30 µM

CCCCCNC(=N)N/N=C/c1c[nH]c2ccc(OC)cc12 [TEGASEROD]
AC50 [3]: > 30 µM

CCOc1ccccc1OCC1CNCCO1 (centres undefined) [VILOXAZINE]
AC50 [4]: > 30 µM
AC50 [5]: > 30 µM
AC50 [6]: > 10 µM
AC50 [7]: > 10 µM
AC50 [8]: > 30 µM
AC50 [9]: > 10 µM

Source: ChEMBL document CHEMBL5291721, “A preclinical secondary pharmacology resource illuminates target-adverse drug reaction associations of marketed drugs” (Nat Commun, 2023)
